Experimental data published in US7968575B2, “Nitric oxide donors and uses thereof” (priority 2004, dated 2011).

What was measured:
c-GMP [1] = assay: Cyclic-GMP measurement in aortic rat tissue (radioimmunoassay); type: cell-based; conditions: rat thoracic aorta, summary of Table 5; in words
Procedure: GTN (10^−6 M) was added to the chamber and, 1 minute after exposure to the drug, rings (usually 3-5) were taken, wrapped with aluminum foil and immediately frozen in liquid nitrogen for storage. Control sample group was treated with the vehicle solution only. At the time of analysis, rings were thawed, blotted over a dry gauzed and weighted. A known weight of tissue was homogenized in 2 ml ice-cold modified Hank's balanced salt solution containing (in gram/liter) NaCl 8; KCl 0.4; glucose 1; KH2PO4 0.06; Na2HPO4 0.047; Phenol red 0.017 and further containing 25 mM EDTA (disodium salt). The homogenate was centrifuged at 4000 g (force units) for 10 minutes at 2-4° C. and the supernatant was thereafter transferred into fresh pre-cooled test tube containing 1 ml of acetonitrile. The tubes were vortex mixed for a few seconds and subsequently centrifuged at 4000 g for 5 minutes at 2-4° C., to remove the precipitated protein. Each supernatant was transferred into a clean test tube and evaporated to dryness under a stream of nitrogen at 55° C. The dry residue was reconstituted with 10 volumes of Tris-EDTA buffer pH 7.5 (0.05 M Tris containing 4 mM EDTA). Aliquots of 100 μl of the reconstituted solution in duplicate were used for c-GMP measurements using Amersham RIA kit, as is described in Haj-Yehia & Benet [Pharmacology, 1995, 273, 1, pp. 94-100]. Standard curves were plotted with six concentrations (0, 0.5, 1, 2, 4 and 8 pmoles of c-GMP per tube).
The NO-tolerance effect of GTN and NO-donor compounds according to the present invention was measured by following the production of c-GMP in slices of thoracic aorta of rats. Thus, the production of c-GMP was measured as described in the methods section above for the reference NO-donor compound GTN, and for the NO-donors of the present invention Pet-2, Pet-3, Pet-7, Pet-8, Pet-10, Pet-12, Pet-24, Pet-59, Pet-147, Pet-149, Pet-152, Pet-154 and Pet-155.

isolated rat aorta = assay: In vitro induction of tolerance: vasorelaxation of aortic rings pre-exposed to the NO-releasing compound; type: cell-based; conditions: vasorelaxation in rings pre-treated with 0.44 mM of the compound versus control rings; in words
Procedure: Aortic rings were prepared as described hereinabove, and were exposed to 0.44 mM GTN (vehicle was water:ethanol:propyleneglycol at proportional ratio of 1:1:1) for 1 hour before CCRC construction, to thereby induce tolerance to nitroglycerine. At the end of the tolerance induction period, rings were thrice washed with the path buffer (Krebs-bicrbonate) every 15 minutes for the following hour and then CCRC for vasorelaxation on GTN-induced tolerance rings were constructed for GTN (pretreated versus untreated rings, FIG. 15), in order to verify the ability to induce and measure GTN tolerance induction in vitro
Attempted induction of tolerance to the NO-donating compounds of the present invention was performed under the same conditions as for GTN. Thus, in an exemplary experiment, rings were exposed to 0.44 mM solution of Pet-3 in the attempt to induce tolerance for Pet-3. CCRC were then measured for the vasorelaxing effect of Pet-3 on a group of rings which were pre-exposed to Pet-3 as to induce tolerance to Pet-3, and for an untreated control group. The above protocol was repeated with Pet-2, Pet-7, Pet-8, Pet-12, Pet-24, Pet-43, Pet-149 and Pet-152.

c-GMP [2] = assay: Induction of in vivo nitrate tolerance (cGMP in aorta isolated after 16 hour infusion); parameters: species or system rat; conditions: in words
Procedure: For c-GMP levels and tolerance development, the rat's thoracic aorta was isolated after exposure to the tested compound in vivo, and measured as described above in the in vitro assays.
Male Sprague Dawley rats (220 to 250 grams) were housed under constant temperature and humidity conditions. Light was maintained at a 12/12 light dark cycle. Except for 12 hours before the experiment, when food fasting was initiated, all rats had free access to standard rat pellet diet and tap water. The animals were anesthetized by intraperitoneal injection of ketamine and xylazine combination (50 and 10 milligram per kilogram, respectively). […] The catheters were filled with normal saline solution containing 1000 IU/ml of heparin and plugged with a metal pin. Catheters were externalized to the back of the neck region and secured by a polyester felt disk.
After implantation, the rats were individually housed until they regained their preoperative weight and appeared healthy (3 to 4 days post-operation). At this time point (day 0), an osmotic mini-pump (Alza Corp., Palo Alto, Calif.) delivering constant volume (10 μl/hour) of vehicle or drug was connected to one of the intravenous catheters.
For inducing tolerance to the tested NO-donor according to the present invention, the animals received 200 μg/hour of the tested compound for 16 hours (short-term-induced tolerance). A similar number of animals were processed by the same surgical procedure and received the vehicle alone (10 μl/hour of a solution consisting of 30% ethanol and 30% propylene glycol in sterile distilled water for injection).
At the end of the infusion periods used for the development of tolerance (16 hour), the rats were anesthetized as described above, the two catheters were externalized and the delivering catheters were disconnected from the mini-pump. The abdomen was opened by midline incision and the thoracic aorta were isolated, washed and cleaned from the surrounding tissues. Strips of the treated aortas were pooled in chambers containing Krebs-Hanseliet buffer (10 ml), and exposed to 1 μM of the tested NO-donor (final concentration) for 120 seconds. The tissues were quickly collected and frozen in liquid nitrogen for cGMP measurement, described hereinabove.

[3] = test system: anesthetized hypertensive Sprague-Dawley male rats; assay: Hypotensive effects: mean arterial pressure after iv bolus; type: in vivo, rat; conditions: rats pre-treated with phenylephrine, iv bolus doses; in words
Procedure: Mean arterial pressure (MAP) was monitored and determined during bolus infusion of Pet-2, Pet-3, Pet-7, Pet-8, Pet-12 and Pet-13. Briefly, polyethylene catheters (PE50) were inserted into the carotid artery and into the jugular vein of anesthetized hypertensive Sprague-Dawley male rats (200-300 grams). A blood pressure recorder was placed within the carotid artery. Phenylephrine (0.1 mg) was then injected and the mean arterial blood pressure (MABP) was monitored continuously until a stable baseline was reached. The hypotensive effects of intravenous (iv) bolus doses (0.1 mg of each tested compound) administered intravenously at the jugular vein in minimal volume of vehicle (0.2 ml per dose) were evaluated. Five minutes were allowed between each dose, during which the maximal decrease in MAP was recorded and a dose-response graph comparing the hypotensive effect of the compounds was constructed.

O=[N+]([O-])OCC(CO[N+](=O)[O-])O[N+](=O)[O-] [GTN, glyceryl trinitrate, reference compound]
c-GMP level following a repeated treatment (c-GMP [1]): significantly reduced
tolerance induction in vitro (isolated rat aorta): tolerance induced
level of cGMP following a repeated treatment in vivo (c-GMP [2]; aorta of rats infused 200 μg/hour for 16 hours, then exposed to 1 μM compound for 120 seconds): decreased
tolerance induction in vivo (c-GMP [2]; cGMP accumulation in isolated aorta of rats pre-treated in vivo with the compound): tolerance inducing effect
hypotensive effect on MAP following successive administrations [3]: attenuation
